The values that follow come from ChEMBL document CHEMBL5532731, “Structural Modifications of Covalent Cathepsin S Inhibitors: Impact on Affinity, Selectivity, and Permeability” (ACS Med Chem Lett, 2024).

pKi: −log10 of the molar value. Activity calls are given as the source filed them. The rule behind the calls is not given here. Starred links: 1 amine or outer side, 2 acyl side, 3 side chain; linkers in the order of their positions; H or OH if unused. Non-standard residues stand in square brackets, D forms with d. Residues, ends and D or L forms follow the SMILES beside them. *: point of attachment. Cha = N[C@@H](CC1CCCCC1)C(=O)O; Morpholide = C1CN(*)CCO1; CO = O=C([*:1])[*:2]; Bn = c1ccc(C*)cc1; CH2Cl = ClC*

The term pKi denotes −log10 of the Ki, conventionally taken in molar units. As a reminder, the bioavailability is dose-corrected exposure relative to a reference, in per cent. Low values mean little systemic uptake, high ones much systemic uptake.

Data set [1] can be described thus: Selectivity index, ratio of Ki for human Cathepsin L using Z-Phe-Arg-AMC as substrate to Ki for recombinant Cathepsin S (unknown origin) expressed in Escherichia coli using Z-Val-Val-Arg-AMC as substrate.
A further data set addresses Cathepsin B (Homo sapiens, UniProt P07858). Kind of data set: Inhibition of human Cathepsin B using Z-Phe-Arg-AMC as substrate by fluorescence based assay.
For data set [2], the target named is T1, Cathepsin S (Homo sapiens, UniProt P25774). Kind of data set: Inhibition of recombinant Cathepsin S (unknown origin) expressed in Escherichia coli using Z-Val-Val-Arg-AMC as substrate by fluorescence based assay.
Target sequence in this assay (P25774 whole entry): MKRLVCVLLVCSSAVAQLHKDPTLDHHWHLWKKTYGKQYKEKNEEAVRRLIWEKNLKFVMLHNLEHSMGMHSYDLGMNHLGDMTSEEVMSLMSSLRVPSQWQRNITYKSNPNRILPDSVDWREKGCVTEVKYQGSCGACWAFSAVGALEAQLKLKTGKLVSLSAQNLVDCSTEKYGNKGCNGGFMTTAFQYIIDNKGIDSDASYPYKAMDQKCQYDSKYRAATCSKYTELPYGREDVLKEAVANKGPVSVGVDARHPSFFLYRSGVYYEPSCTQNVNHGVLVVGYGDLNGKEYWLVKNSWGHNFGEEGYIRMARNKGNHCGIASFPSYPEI
Another data set addresses Procathepsin L (Homo sapiens, UniProt P07711). Description: Inhibition of human Cathepsin L using Z-Phe-Arg-AMC as substrate by fluorescence based assay.
The target in data set [3] is T1, Cathepsin S. Kind of data set: Binding affinity to recombinant Cathepsin S (unknown origin) expressed in Escherichia coli using Z-Val-Val-Arg-AMC as substrate assessed as second-order rate constant (K) for irreversible binding by fluorescence based assay.
Target sequence in this assay (P25774 115-331 limits assumed): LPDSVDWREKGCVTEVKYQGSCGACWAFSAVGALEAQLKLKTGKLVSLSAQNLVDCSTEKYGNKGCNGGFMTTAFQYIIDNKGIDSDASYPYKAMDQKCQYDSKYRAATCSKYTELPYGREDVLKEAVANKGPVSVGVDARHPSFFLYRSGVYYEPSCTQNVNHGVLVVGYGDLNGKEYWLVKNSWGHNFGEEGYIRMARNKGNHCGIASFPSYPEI
Data set [4] has as its target T1, Cathepsin S. Description: Binding affinity to recombinant Cathepsin S (unknown origin) expressed in Escherichia coli using Z-Val-Val-Arg-AMC as substrate assessed as Kinact for irreversible binding by fluorescence based assay.
Target sequence in this assay (P25774 115-331 limits assumed): as above
Data set [5] concerns the target T1, Cathepsin S. Kind of data set: Irreversible binding affinity to recombinant Cathepsin S (unknown origin) expressed in Escherichia coli incubated for 60 mins followed by substrate addition by fluorescence based dilution assay.
Target sequence in this assay (P25774 115-331 limits assumed): as above
A short description of data set [6]: Permeability of compound measured after 7 hrs by PAMPA. The class given is ADME. The following applies: read-out: permeability. Background: The PAMPA barrier holds no transporters, so it reflects passive diffusion.
Data set [7] is described as follows: Oral bioavailability in rat. The class given is ADME, organism-based. The following applies: in vivo.
The target of data set [8] is T1, Cathepsin S. Description: Binding affinity to recombinant Cathepsin S (unknown origin) expressed in Escherichia coli using Z-Val-Val-Arg-AMC as substrate assessed as inhibition constant for slowly reversible binding by fluorescence based assay.
Target sequence in this assay (P25774 whole entry): as the sequence (P25774 whole entry) above
The nature of data set [9]: Selectivity index, ratio of Ki for human Cathepsin B using Z-Phe-Arg-AMC as substrate to Ki for recombinant Cathepsin S (unknown origin) expressed in Escherichia coli using Z-Val-Val-Arg-AMC as substrate.
A short description of data set [10]: Stability of compound at pH 4 assessed as compound remaining measured after 24 hrs. The following applies: buffer, pH 4, 24 h. The class given is physicochemical.
A short description of data set [11]: Stability of compound at pH 4 assessed as compound remaining measured after 2 hrs. The data set is classed as physicochemical. The following applies: buffer, pH 4, 2 h.
Data set [12] in a line: Stability of compound at pH 7.4 assessed as compound remaining measured after 24 hrs. The class given is physicochemical. The following applies: buffer, read-out: Stability.
For data set [13], the target named is T1, Cathepsin S. Description: Inhibition of Cathepsin S (unknown origin).
Target sequence in this assay (P25774 whole entry): as above

Chain of Procathepsin L (P07711 whole entry): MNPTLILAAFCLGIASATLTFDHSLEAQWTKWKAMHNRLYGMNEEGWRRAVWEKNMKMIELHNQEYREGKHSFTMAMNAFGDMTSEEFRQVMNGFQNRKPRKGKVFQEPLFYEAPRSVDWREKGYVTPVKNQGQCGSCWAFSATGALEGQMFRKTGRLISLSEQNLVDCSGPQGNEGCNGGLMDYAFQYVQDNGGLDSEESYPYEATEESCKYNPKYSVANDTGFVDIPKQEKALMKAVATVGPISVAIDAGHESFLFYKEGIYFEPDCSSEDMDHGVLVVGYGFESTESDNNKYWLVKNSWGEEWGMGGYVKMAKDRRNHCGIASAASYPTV

As to `CS(=O)(=O)C[C@H](N[C@@H](c1ccc([N+](=O)[O-])cc1)C(F)(F)F)C(=O)N[C@H](C#N)CCc1ccccc1`, the Ratio Ki in data set [1] is over 2780. Further, the pKi was 7.44 at Cathepsin B, 8.44 on Cathepsin S [2] and under 5.00 at Procathepsin L.

Regarding `O=C(CCl)[C@H](COCc1ccccc1)NC(=O)[C@H](CC1CCCCC1)NC(=O)N1CCOCC1` ({Morpholide-CO}-[Cha]-Ser(Bn)-CH2Cl), the pKi on Cathepsin S [2] is 9.30. Further, the K at Cathepsin S [3] was 4.3 10^6/M/s. For the same compound, the Kinact at Cathepsin S [4] was 0.002 s⁻¹.

In the case of `O=C(OCC(=O)[C@H](COCc1ccccc1)NC(=O)[C@H](CC1CCCCC1)NC(=O)N1CCOCC1)c1ccccc1`, the pKi at Cathepsin B was under 5.59; at Cathepsin S [2], 7.60; on Procathepsin L, under 6.22. Also, the result on Cathepsin S [5] was Active.

Take `N#C[C@H](COCc1ccccc1)NC(=O)[C@H](CC1CCCCC1)NC(=O)N1CCOCC1`: the Papp at 7 h in data set [6] worked out at 4.7 ×10⁻⁶ cm/s. Also, the negative-log Ki (pKi) at Cathepsin B is 5.98; on Procathepsin L it was 6.27.

`CNC(=O)O[C@H]1COc2ccc(N3CCN(C4COC4)CC3)cc2[C@@H]1NC(=O)c1ccc(F)cc1` showed a bioavailability in data set [7] of 92%.

For the compound `CS(=O)(=O)C[C@H](N[C@@H](c1ccc([N+](=O)[O-])cc1)C(F)(F)F)C(=O)N[C@H](C#N)COCc1ccccc1`, in [6], the Papp at 7 h came to 0.7 ×10⁻⁶ cm/s. For the same compound, the results for the pKi on Cathepsin B, on Cathepsin S [2] and on Procathepsin L were 7.09, 7.89 and under 5.00, respectively.

With `O=C(SCC(=O)[C@H](COCc1ccccc1)NC(=O)[C@H](CC1CCCCC1)NC(=O)N1CCOCC1)c1ccccc1`, the pKi at Cathepsin B was under 8.00; on Cathepsin S [2], 6.78; at Procathepsin L, under 5.52. Also, the outcome on Cathepsin S [5] was inactive.

For `N#C[C@H](CCc1ccccc1)NC(=O)[C@H](CC1CCCCC1)NC(=O)c1ccncc1`, the Papp at 7 h in data set [6] amounted to 2.5 ×10⁻⁶ cm/s. The figures for the pKi on Cathepsin B, at Cathepsin S [2] and at Procathepsin L were 5.78, 7.89 and 5.83, respectively.

`N#C[C@H](CCc1ccccc1)NC(=O)[C@H](CC1CCCCC1)N[C@@H](c1ccc(F)cc1)C(F)(F)F`: the pKi is under 4.92 on Cathepsin B, 6.84 at Cathepsin S [2] and under 5.00 on Procathepsin L.

On to `N#CC1(NC(=O)[C@H](CC2CCCCC2)NC(=O)C2CCOCC2)CC1`, for which the Papp at 7 h in data set [6] stood at 0.1 ×10⁻⁶ cm/s. Moreover, the pKi on Cathepsin B is under 4.92; on Cathepsin S [2], 6.93; on Procathepsin L, 5.78.

For `O=C[C@H](COCc1ccccc1)NC(=O)[C@H](CC1CCCCC1)NC(=O)N1CCOCC1` ({Morpholide-CO}-[Cha]-Ser(Bn)-aldehyde), the pKi on Cathepsin S [8] was 10.80; on Cathepsin B, 7.19; at Cathepsin S [2], 10.41; on Procathepsin L, 7.77. In addition, the Ratio Ki is over 1600 in [9] and over 435 in data set [1]. Further, in data set [6], the Papp at 7 h came out at 4.5 ×10⁻⁶ cm/s.

For the compound `O=C(CS(=O)(=O)c1ccccc1)[C@H](COCc1ccccc1)NC(=O)[C@H](CC1CCCCC1)NC(=O)N1CCOCC1`, the negative-log Ki (pKi) is 7.37 on Cathepsin S [8], under 6.29 on Cathepsin B, 6.48 at Cathepsin S [2] and under 6.22 on Procathepsin L. Besides, the Papp at 7 h in data set [6] was found to be 0.8 ×10⁻⁶ cm/s. The outcome at Cathepsin S [5] was inactive.

On to `O=C(N/N=C(\CS(=O)(=O)c1ccccc1)[C@H](COCc1ccccc1)NC(=O)[C@H](CC1CCCCC1)NC(=O)N1CCOCC1)c1ccccc1`, for which the Stability in data set [10] came out at 13%. Besides, the pKi was under 7.92 at Cathepsin B, 6.00 at Cathepsin S [2] and under 5.60 on Procathepsin L.

With `N#C[C@H](CCc1ccccc1)NC(=O)[C@H](CC1CCCCC1)NC(=O)C1CCOCC1`, the Papp at 7 h in data set [6] stood at 6.6 ×10⁻⁶ cm/s. Further, the pKi on Cathepsin B is under 4.92; on Cathepsin S [2] it was 6.42; on Procathepsin L, 5.20.

`CS(=O)(=O)C[C@H](N[C@@H](c1ccc([N+](=O)[O-])cc1)C(F)(F)F)C(=O)NC1(C#N)CC1`: in data set [9], the Ratio Ki is over 1500. Besides, the pKi is under 4.92 on Cathepsin B, 8.11 at Cathepsin S [2] and under 5.00 on Procathepsin L.

As to `O=C(CO)[C@H](COCc1ccccc1)NC(=O)[C@H](CC1CCCCC1)NC(=O)N1CCOCC1`, the negative logarithm of the Ki (pKi) on Cathepsin B is under 5.59; at Cathepsin S [2] it was 7.17; on Procathepsin L, under 6.22. Moreover, on Cathepsin S [5], the outcome was inactive.

As to `N#CC1(NC(=O)[C@H](CC2CCCCC2)NC(=O)N2CCOCC2)CC1`, the pKi on Cathepsin B is under 4.92; at Cathepsin S [2] it was 8.82; at Procathepsin L, 6.41.

In the case of `N#C[C@H](COCc1ccccc1)NC(=O)[C@H](CC1CCCCC1)NC(=O)c1ccncc1`, the Papp at 7 h in [6] was found to be 2 ×10⁻⁶ cm/s. The pKi at Cathepsin B was 5.72; at Procathepsin L, 5.99.

Turning to `CS(=O)(=O)C[C@H](N[C@@H](c1ccc(F)cc1)C(F)(F)F)C(=O)NC1(C#N)CC1`, in data set [9], the Ratio Ki turned out to be 1670. Further, the pKi at Cathepsin B was 5.78; on Cathepsin S [2], 9.00; at Procathepsin L it was 5.15. The result at Cathepsin S [5] was inactive.

As for `C=CS(=O)(=O)C(=O)[C@H](COCc1ccccc1)NC(=O)[C@H](CC1CCCCC1)NC(=O)N1CCOCC1`, at Cathepsin S [2], the pKi is 8.52. Also, the K at Cathepsin S [3] was 7.2 10^6/M/s. Moreover, on Cathepsin S [5], the result was Active. Further, the Kinact at Cathepsin S [4] is 0.02 s⁻¹.

For the compound `N#CC1(NC(=O)[C@H](CC2CCCCC2)N[C@@H](c2ccc(F)cc2)C(F)(F)F)CC1`, the Papp at 7 h in data set [6] stood at 4.9 ×10⁻⁶ cm/s. In addition, the pKi at Cathepsin B is under 4.92; on Cathepsin S [2] it was 7.70; on Procathepsin L it was 5.82.

Consider `N#C[C@H](COCc1ccccc1)NC(=O)[C@H](CC1CCCCC1)NC(=O)C1CCOCC1`, for which the Papp at 7 h in [6] was 4.1 ×10⁻⁶ cm/s. In addition, the pKi was under 4.92 on Cathepsin B, 7.21 on Cathepsin S [2] and 5.30 at Procathepsin L.

As for `O=C(N/N=C/[C@H](COCc1ccccc1)NC(=O)[C@H](CC1CCCCC1)NC(=O)N1CCOCC1)c1ccccc1`, the Stability was found to be 50% in [11] and 80% in data set [10]. Further, the Papp at 7 h in [6] came to 0.1 ×10⁻⁶ cm/s. In addition, the pKi at Cathepsin B is 6.85; at Cathepsin S [2] it was 8.66; on Procathepsin L, 7.68. Further, in data set [12], the remaining at 24 h is 50%.

For the compound `N#C[C@H](COCc1ccccc1)NC(=O)[C@H](CC1CCCCC1)N[C@@H](c1ccc(F)cc1)C(F)(F)F`, the pKi on Cathepsin B is under 4.92; at Cathepsin S [2], 7.96; at Procathepsin L, under 5.00.

Consider `CS(=O)(=O)C[C@H](N[C@@H](c1ccc(F)cc1)C(F)(F)F)C(=O)N[C@H](C#N)COCc1ccccc1`, for which the pKi at Cathepsin B is 6.80; at Cathepsin S [2], 8.62; on Procathepsin L it was 5.71.

`N#C[C@H](CCc1ccccc1)NC(=O)[C@H](CC1CCCCC1)NC(=O)N1CCOCC1`: the Papp at 7 h in data set [6] worked out at 6 ×10⁻⁶ cm/s. Moreover, the negative logarithm of the Ki (pKi) at Cathepsin B was 5.11; at Procathepsin L it was 5.60.

In turn, `CN1CCN(C(=O)N[C@@H](Cc2ccccc2)C(=O)N[C@H](/C=C/S(=O)(=O)c2ccccc2)CCc2ccccc2)CC1` [K-777] gave a pKi on Cathepsin S [13] of 7.89.

With `N#CC1(NC(=O)[C@H](CC2CCCCC2)NC(=O)c2ccncc2)CC1`, the pKi on Cathepsin B was under 4.92; at Cathepsin S [2], 7.89; at Procathepsin L, 6.15.
